Consider three molecules from ChEMBL document CHEMBL5321296, “Structure-Based Ligand Discovery Targeting the Transmembrane Domain of Frizzled Receptor FZD7” (J Med Chem, 2023).

The target of one assay is Frizzled-7 (Homo sapiens, UniProt O75084). Put plainly: Antagonist activity at his-tagged FZD7 transmembrane domain (unknown origin) assessed as dissociation constant by SPR analysis. In general terms: SPR reads the build-up and loss of mass on a sensor chip optically.
Assay [1] can be described thus: Inhibition of Wnt/beta-catenin signalling in Wnt3a stimulated human HEK293 cells assessed as reduction in luciferase activity incubated for 24 hrs by TOPFlash luciferase reporter assay. Format: cell-based. As to conditions: HEK293, 24 h. Background: In a reporter assay the amount or activity of a reporter protein is the signal.
For assay [2], the target named is Protein smoothened (Homo sapiens) (UniProt Q99835). As to the kind of experiment: Binding affinity to SMO (unknown origin) assessed as dissociation constant by SPR analysis.
Sequence of Protein smoothened (Homo sapiens) (Q99835 whole entry): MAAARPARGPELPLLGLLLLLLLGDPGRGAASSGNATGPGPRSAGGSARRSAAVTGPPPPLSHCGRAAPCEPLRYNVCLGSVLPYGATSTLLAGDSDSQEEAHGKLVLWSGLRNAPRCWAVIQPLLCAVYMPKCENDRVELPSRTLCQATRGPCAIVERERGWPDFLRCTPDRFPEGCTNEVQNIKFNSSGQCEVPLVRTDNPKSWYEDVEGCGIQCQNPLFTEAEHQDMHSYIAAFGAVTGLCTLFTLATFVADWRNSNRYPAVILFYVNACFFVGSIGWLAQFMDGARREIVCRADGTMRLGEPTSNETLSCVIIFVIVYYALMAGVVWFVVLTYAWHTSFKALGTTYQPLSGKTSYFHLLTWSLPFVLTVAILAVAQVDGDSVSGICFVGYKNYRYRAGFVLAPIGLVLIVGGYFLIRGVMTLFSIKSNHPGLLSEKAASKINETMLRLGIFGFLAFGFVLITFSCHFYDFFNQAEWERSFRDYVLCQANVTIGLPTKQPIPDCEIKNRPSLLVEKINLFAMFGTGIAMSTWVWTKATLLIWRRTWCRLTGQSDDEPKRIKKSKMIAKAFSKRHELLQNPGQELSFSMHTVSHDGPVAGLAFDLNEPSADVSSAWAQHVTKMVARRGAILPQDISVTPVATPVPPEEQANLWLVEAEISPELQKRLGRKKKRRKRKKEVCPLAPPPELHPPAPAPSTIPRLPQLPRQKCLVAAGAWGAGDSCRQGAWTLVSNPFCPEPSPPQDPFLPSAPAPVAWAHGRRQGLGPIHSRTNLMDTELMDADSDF

Structures are written as SMILES. The source made the active and inactive calls. The rule behind the calls is not given here.

Take `O=C(CSc1ccc(NC(=O)c2ccc(F)cc2)cc1)Nc1nc(-c2ccccc2)cs1`: on Frizzled-7, the Kd – broadly, a measure of binding affinity in units of concentration – amounted to 0.16 µM. Further, in assay [1], the IC50 (in general, the concentration that gives 50% inhibition) worked out at 1.28 µM. Also, the result in assay [2] was inactive.

On to `Cc1ccc(C(=O)Nc2ccc(SCC(=O)Nc3nc(-c4ccccc4)cs3)cc2)c(C)c1`, for which, in assay [1], the IC50 worked out at 0.04 µM. The same measure, in the same setting: with `Cc1ccc(C(=O)Nc2ccc(SCC(=O)Nc3nc(-c4ccccc4)cs3)cc2)cc1` the figure was 0.23 µM.
